Earlier results, collected in PMC7062412 (Drug Design, Development and Therapy, 2020).

Legend:
ET-1 = conditions: overall animals, isolated organs, cells and subcells

half-life in the body: 30 to 60 min
SMILES: O=C(O)/C=C/c1ccc(O)c(O)c1 [Caffeic Acid, caffeic acid]
antagonistic biological effect on ET-1 (ET-1): had an antagonistic biological effect on ET-1
